Experimental data taken from US20140309137A1, “GENE EXPRESSION PROFILES ASSOCIATED WITH LEAN PHENOTYPE AND USES THEREOF” (NESTEC SA, priority 2008, published 2014).

Tests used:
[1] = Biochemical analyses of blood (fasting glucose, glucagon, insulin); assay type: in vivo, Sprague Dawley rats; settings: for Fasting blood glucagon / Fasting blood glucose / Fasting blood insulin: rats
From the text: (§1) Four-week old male Sprague Dawley rats were allowed to acclimate for two weeks on a control diet comprising AIN-93M (American Institute of Nutrition purified diet formula for maintenance of mature rodents). Rats were divided into four groups of 12. Group 1 was fed the control diet supplemented with CLA (Table 1). Group 2 was fed a modified diet increased in protein and decreased in carbohydrate (Table 1). Group 3 was fed the control diet, and was given the opportunity to engage in supplemental exercise. Specifically, a running wheel was placed in the cage of each rat in group 3, and daily use of the wheel was monitored by recording each turn of the wheel using a sensor connected to a computer. Group 4 was fed the control diet (Table 1).
(§2) Measurements were taken at 7 and 60 days after initiation of the feeding or exercise protocols. At the completion of the 60-day feeding protocol, all animals were sacrificed and analyses were performed.

[2] = Body composition and body fat analysis after CLA, high protein diet or exercise treatment; assay type: in vivo, Sprague Dawley rats; settings: rats
From the text: as §1, §2
Body composition analyses were performed on the test animals.

[3] = after 60 days, compared with the control diet and the exercise treatment

## conjugated linoleic acid [CLA]
[1]; [3]
  Blood glucose level: reduced blood glucose level
  Blood insulin: reduced blood insulin
[1]; Day 7
  Fasting blood glucagon: 111.65 pg/mL
  Fasting blood glucose: 10.53 mmol/L
  Fasting blood insulin: 233.58 pmol/L
[1]; Day 60
  Fasting blood glucagon: 120.77 pg/mL
  Fasting blood glucose: 11.08 mmol/L
  Fasting blood insulin: 172.66 pmol/L
[2]; 60 days, compared with the Control group
  Body fat: reduced body fat
[2]; following 60 days of treatment
  Retroperitoneal fat: 10.07 g
  Total fat pad: 31.80 g
